Results from patent US20250002489A1, “BIFUNCTIONAL COMPOUNDS FOR DEGRADING ITK VIA UBIQUITIN PROTEOSOME PATHWAY” (NURIX THERAPEUTICS, INC., priority 2021, published 2025).

Target: T1, ITK (Jurkat or Molt4 cells) (Homo sapiens, UniProt Q08881)
T1 construct: either human Jurkat (Clone E6-1 ATCC TIB-152) or Motl4 (ATCC CRL-1552), were plated; endogenous in cells; host or cells: Jurkat Clone E6-1 (ATCC TIB-152) or Molt4 (ATCC CRL-1552)
T1 sequence (Q08881 1-620): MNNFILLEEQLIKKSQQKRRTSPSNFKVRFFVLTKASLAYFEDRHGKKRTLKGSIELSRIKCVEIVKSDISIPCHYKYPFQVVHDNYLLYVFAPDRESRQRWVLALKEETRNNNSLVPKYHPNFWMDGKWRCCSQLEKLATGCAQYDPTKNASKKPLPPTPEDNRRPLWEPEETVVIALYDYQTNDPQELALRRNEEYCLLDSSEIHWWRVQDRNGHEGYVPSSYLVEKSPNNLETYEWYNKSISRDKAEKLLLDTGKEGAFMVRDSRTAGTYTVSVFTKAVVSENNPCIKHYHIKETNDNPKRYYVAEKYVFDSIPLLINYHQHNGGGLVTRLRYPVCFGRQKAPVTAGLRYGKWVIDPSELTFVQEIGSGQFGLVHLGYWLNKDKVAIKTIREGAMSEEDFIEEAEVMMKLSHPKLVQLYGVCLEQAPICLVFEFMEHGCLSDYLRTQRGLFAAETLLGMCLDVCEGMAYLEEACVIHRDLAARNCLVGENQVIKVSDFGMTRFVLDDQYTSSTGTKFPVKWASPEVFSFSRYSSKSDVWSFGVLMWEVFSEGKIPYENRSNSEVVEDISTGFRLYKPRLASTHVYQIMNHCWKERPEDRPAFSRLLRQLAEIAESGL
Experiment: ITK Degradation MSD (Meso Scale Discovery) Assay
Assay type: cell-based
Conditions: 4 or 6 hrs incubation; for DC50: best fit IC50 used as DC50
Method: Compound dilution series (7-point, 5-fold dilutions in DMSO, rows B—H with replicate in Column 1/2, 3/4, 5/6, 7, and 8 at 2000× the final required concentrations were prepared in 96-well plate (Falcon, cat. no. 353077). Row A, Column 1-8 were control DMSO. The 2000× solutions ranged from 2 mM to 128 nM (final assay concentration range 1 μM to […]). The 2000×solutions were added to cells in 10 μL volume, for a final DMSO concentration of 0.5% and final assay compound concentration of 1×. For the cells, either human Jurkat (Clone E6-1 ATCC TIB-152) or Motl4 (ATCC CRL-1552), were plated at 1×10^6 cells/mL, 100 μL/well ([…]) in complete RPMI (10% FBS, 1% L-glutamine). The cells were incubated with compounds 26-29 for 4 or 6 hrs at 32° C./6% CO2.
Following incubation, plates were centrifuged at 1200 rpm for 5 min. Supernatant was removed and 50 μL of cell lysis buffer (MSD Tris lysis buffer (R60TX), complete Mini EDTA-free protease inhibitor (Sigma 11836170001), Protease Inhibitor Cocktail (Sigma, P2714), Phosphatase Inhibitor Cocktail 2 and 3 (Sigma, P5726 and P0044), Benzonase (Sigma, E1014)) was added to each well. Plate was sealed and shook at 4° C. for 30 min. Plate was centrifuged and 45 μL was removed for plate assay.
Assay plate preparation: Meso Scale Discovery (MSD) multi-array sm spot 96-well plates (Goat anti-Rabbit L^45-RA), were blocked with 3% BSA blocking buffer (3% Bovine Serum Albumin (Sigma A3059)+TBS 0.2% Tween-20) for one hour with gentle rocking at room temperature. Plate was then washed with 200 μL of 1×TBST (TBS 0.2% Tween-20) three times. After the last wash, all liquid was removed and 50 μL per well of capture antibody (abcam ITK Y402-ab32507) was added to plate at a 1:1000 dilution in blocking buffer (see above). Plate was sealed and rocked at room temperature for 2 hrs. Plate was then washed three times with 200 μL of 1×TBST. After the last wash, all liquid was removed and 45 μL of cell lysate (from above) was added to plate. Plate was sealed and rocked overnight at 4° C. The next day, cell lysates were removed, and assay plate was washed three times with 200 μL of 1×TBST. After the last wash, liquid was removed and detection antibody (CST ITK (2F12) #2380) was added at 50 μL per well at a dilution of 1:1000 in blocking buffer. Plate was sealed and rocked at room temperature for 2 hrs. Plate was washed three times with 200 μL of 1×TBST. After the last wash, all liquid was removed, MSD […] sulfo tag (R32AC-1) was diluted to 1:1000 in blocking buffer. 50 μL was added to each well on the plate. Plate was sealed and incubated at room temperature for one hour. Plate was washed three times with 200 μL of 1×TBST. After last wash, all liquid was removed and 150 μL of 1×MSD Read Buffer T (R92PC) was then added to each well for ECL read out.
For reading ECL signal, plate was read on a Meso Scale Discovery (MSD) MESO Sector S 600 plate reader. Percent ITK was then calculated as described below.
Percent ITK remaining per sample was calculated as follows: […]
Using Graphpad Prism, % ITK remaining values were plotted as a function of compound concentration. To determine DC50 and Dmax values, resulting curves were fit to the Prism curve-fitting equation “log(inhibitor) vs response−Variable slope (four parameters)” (reported best fit value IC50 used as DC50).

DC50 [nM] | Dmax [%] | Compound
54.7 |  | Cc1ncsc1-c1ccc(CNC(=O)[C@@H]2C[C@@H](O)CN2C(=O)[C@@H](NC(=O)CCOCCOCCOCCC(=O)N2CC([C@@H](c3ccccc3)n3cc(NC(=O)c4n[nH]c5c4C[C@@H]4C(F)(F)[C@]4(C)C5)cn3)C2)C(C)(C)C)cc1 [Compound 15, (4aS,5aR)-5,5-difluoro-N-(1-((S)-(1-((S)-15-((2S,4R)-4-hydroxy-2-((4-(4-methylthiazol-5-yl)benzyl)carbamoyl)pyrrolidine-1-carbonyl)-16,16-dimethyl-13-oxo-4,7,10-trioxa-14-azaheptadecanoyl)azetidin-3-yl)(phenyl)methyl)-1H-pyrazol-4-yl)-5a-methyl-1,4,4a,5,5a,6-hexahydrocyclopropa[f]indazole-3-carboxamide]
64.7 | 95 | Cc1ncsc1-c1ccc([C@H](C)NC(=O)[C@@H]2C[C@@H](O)CN2C(=O)[C@@H](NC(=O)c2ncc(N3CCC(C(=O)N4CC([C@@H](c5ccccc5)n5cc(NC(=O)c6n[nH]c7c6C[C@@H]6C(F)(F)[C@]6(C)C7)cn5)C4)CC3)cn2)C(C)(C)C)cc1 [Compound 21, (4aS,5aR)-5,5-difluoro-N-(1-((S)-(1-(1-(2-(((S)-1-((2S,4R)-4-hydroxy-2-(((S)-1-(4-(4-methylthiazol-5-yl)phenyl)ethyl)carbamoyl)pyrrolidin-1-yl)-3,3-dimethyl-1-oxobutan-2-yl)carbamoyl)pyrimidin-5-yl)piperidine-4-carbonyl)azetidin-3-yl)(phenyl)methyl)-1H-pyrazol-4-yl)-5a-methyl-1,4,4a,5,5a,6-hexahydrocyclopropa[f]indazole-3-carboxamide]
114 |  | Cc1ncsc1-c1ccc(CNC(=O)[C@@H]2C[C@@H](O)CN2C(=O)[C@@H](NC(=O)CCOCCOCCOCCOCCN2CC([C@@H](c3ccccc3)n3cc(NC(=O)c4n[nH]c5c4C[C@@H]4C(F)(F)[C@]4(C)C5)cn3)C2)C(C)(C)C)cc1 [Compound 12, (4aS,5aR)-5,5-difluoro-N-(1-((S)-(1-((S)-17-((2S,4R)-4-hydroxy-2-((4-(4-methylthiazol-5-yl)benzyl)carbamoyl)pyrrolidine-1-carbonyl)-18,18-dimethyl-15-oxo-3,6,9,12-tetraoxa-16-azanonadecyl)azetidin-3-yl)(phenyl)methyl)-1H-pyrazol-4-yl)-5a-methyl-1,4,4a,5,5a,6-hexahydrocyclopropa[f]indazole-3-carboxamide]
13.6 |  | CN[C@@H](C)C(=O)N[C@H](C(=O)N1CCCC1c1nc(C(=O)c2cccc(OCCOCCOCCOCCOCCOCCC(=O)N3CC([C@@H](c4ccccc4)n4cc(NC(=O)c5n[nH]c6c5C[C@@H]5C(F)(F)[C@]5(C)C6)cn4)C3)c2)cs1)C1CCCCC1 (stereo in doubt) [Compound 4, (4aS,5aR)—N-(1-((S)-(1-(1-(3-(2-((R)-1-((S)-2-cyclohexyl-2-((S)-2-(methylamino)propanamido)acetyl)pyrrolidin-2-yl)thiazole-4-carbonyl)phenoxy)-3,6,9,12,15-pentaoxaoctadecan-18-oyl)azetidin-3-yl)(phenyl)methyl)-1H-pyrazol-4-yl)-5,5-difluoro-5a-methyl-1,4,4a,5,5a,6-hexahydrocyclopropa[f]indazole-3-carboxamide]
13.3 | 91 | Cc1ncsc1-c1ccc([C@H](C)NC(=O)[C@@H]2C[C@@H](O)CN2C(=O)[C@@H](NC(=O)c2ccc(N3CCC(CC(=O)N4CC([C@@H](c5ccccc5)n5cc(NC(=O)c6n[nH]c7c6C[C@@H]6C(F)(F)[C@]6(C)C7)cn5)C4)CC3)cn2)C(C)(C)C)cc1 [Compound 23, (4aS,5aR)-5,5-difluoro-N-(1-((S)-(1-(2-(1-(6-(((S)-1-((2S,4R)-4-hydroxy-2-(((S)-1-(4-(4-methylthiazol-5-yl)phenyl)ethyl)carbamoyl)pyrrolidin-1-yl)-3,3-dimethyl-1-oxobutan-2-yl)carbamoyl)pyridin-3-yl)piperidin-4-yl)acetyl)azetidin-3-yl)(phenyl)methyl)-1H-pyrazol-4-yl)-5a-methyl-1,4,4a,5,5a,6-hexahydrocyclopropa[f]indazole-3-carboxamide]
134 |  | Cc1ncsc1-c1ccc(CNC(=O)[C@@H]2C[C@@H](O)CN2C(=O)[C@@H](NC(=O)CCOCCOCCOCCOCCOCCOCCC(=O)N2CC([C@@H](c3ccccc3)n3cc(NC(=O)c4n[nH]c5c4C[C@@H]4C(F)(F)[C@]4(C)C5)cn3)C2)C(C)(C)C)cc1 [Compound 14, (4aS,5aR)-5,5-difluoro-N-(1-((S)-(1-((S)-24-((2S,4R)-4-hydroxy-2-((4-(4-methylthiazol-5-yl)benzyl)carbamoyl)pyrrolidine-1-carbonyl)-25,25-dimethyl-22-oxo-4,7,10,13,16,19-hexaoxa-23-azahexacosanoyl)azetidin-3-yl)(phenyl)methyl)-1H-pyrazol-4-yl)-5a-methyl-1,4,4a,5,5a,6-hexahydrocyclopropa[f]indazole-3-carboxamide]
49 |  | CN[C@@H](C)C(=O)N[C@H](C(=O)N1CCC[C@H]1c1nc(C(=O)c2cccc(OCCCN3CC([C@@H](c4ccccc4)n4cc(NC(=O)c5n[nH]c6c5C[C@@H]5C(F)(F)[C@]5(C)C6)cn4)C3)c2)cs1)C1CCCCC1 [Compound 8, (4aS,5aR)—N-(1-((S)-(1-(3-(3-(2-((S)-1-((S)-2-cyclohexyl-2-((S)-2-(methylamino)propanamido)acetyl)pyrrolidin-2-yl)thiazole-4-carbonyl)phenoxy)propyl)azetidin-3-yl)(phenyl)methyl)-1H-pyrazol-4-yl)-5,5-difluoro-5a-methyl-1,4,4a,5,5a,6-hexahydrocyclopropa[f]indazole-3-carboxamide]

Compound | DC50 [nM] | Dmax [%]
Cc1ncsc1-c1ccc([C@H](C)NC(=O)[C@@H]2C[C@@H](O)CN2C(=O)[C@@H](NC(=O)CN2CCN(CC(=O)N3CC([C@@H](c4ccccc4)n4cc(NC(=O)c5n[nH]c6c5C[C@@H]5C(F)(F)[C@]5(C)C6)cn4)C3)CC2)C(C)(C)C)cc1 [Compound 24, (4aS,5aR)-5,5-difluoro-N-(1-((S)-(1-(2-(4-(2-(((S)-1-((2S,4R)-4-hydroxy-2-(((S)-1-(4-(4-methylthiazol-5-yl)phenyl)ethyl)carbamoyl)pyrrolidin-1-yl)-3,3-dimethyl-1-oxobutan-2-yl)amino)-2-oxoethyl)piperazin-1-yl)acetyl)azetidin-3-yl)(phenyl)methyl)-1H-pyrazol-4-yl)-5a-methyl-1,4,4a,5,5a,6-hexahydrocyclopropa[f]indazole-3-carboxamide] | 92.7 | 93
